# Square brackets hold non-standard residues; d marks the D form. Peptide text beside a SMILES is read from it. pS = N[C@@H](COP(=O)(O)O)C(=O)O
# Key:
# NPC1 patient fibroblasts = assay: Gene expression in NPC1 patient fibroblasts; format: cell-based, human
# [1] = Circular dichroism secondary structure analysis (DichroWeb); format: physicochemical
# Description: Circular Dichroism (CD). CD analysis was performed on a Jasco 815 CD spectrometer at room temperature. TMEM97 (108-176) and Hst1 full-length peptides were prepared as 10 mM stock in 25% DMSO and water, respectively, and diluted to 0.15 mg/mL final concentration in 10 mM […] buffer. A total of 400 μL of each sample was added into a 1 mm quartz sample cell, and CD spectra were recorded from 260 nm to 190 nm wavelength. Data points were measure in 0.5 nm wavelength step at a scanning speed of 100 nm/minute. A total of five spectra were acquired for each sample and averaged. […] buffer without peptide was used as a control curve, which was subsequently subtracted from the CD spectra of peptide samples. The resulting buffer control subtracted CD intensity row data in millidegrees were submitted to DichroWeb and fitted with multiple embedded models and converted to mean residue ellipticity.
# Subsequently, the hypothesis that interaction between Hst1 and TMEM97 could affect the structure of each protein was tested. Also, the secondary structure of Hst1 and TMEM97 was tested in solution using CD measurements. It was noted that Hst1 alone is mostly disordered (over 50%) with some degree of β-strand, while TMEM97 (108-176) contains some α-helical and β-strand regions with ˜34% disordered regions. According to CD spectra comparison, there seemed to be more secondary structures formed upon Hst1 binding to TMEM97 (108-176).
# [2] = target: T1, full-length recombinant TMEM97 (HEK293 cells) (Homo sapiens, UniProt Q5BJF2); assay: Surface plasmon resonance, immobilized full-length TMEM97; format: binding
# T1 construct: Recombinant full-length TMEM97 (also called MAC30, from HEK293 cells); purchased OriGene (Rockville, Md.); host or cells: HEK293 cells
# [3] = tested on: Human corneal epithelial cells; assay: Calcium Green-2 calcium signaling in human corneal epithelial cells; format: cell-based
# Description: Calcium Signaling. Human corneal epithelial cells were treated with Hst1 or Hst5, stained with Calcium Green-2, and relative fluorescence intensity was monitored at 1, 2 and 4 hours. […] This normalization of cellular calcium levels seen after toxicity from benzalkonium chloride treatment is analogous to toxic effects seen in chronic pain and other conditions. As such, histatin peptides may of use in the amelioration of chronic pain.
# TMEM97 (144-176) = target: T2, TMEM97 (144-176) (Homo sapiens, UniProt Q5BJF2); assay: Isothermal titration calorimetry, C-terminal of TMEM97; format: binding; settings: ITC; the C-terminal of TMEM97
# T2 construct: made in house; host or cells: chemical solid-phase synthesis (Fmoc, Wang resin)
# Description: Isothermal Titration Calorimetry (ITC). The three synthesized peptides, TMEM97 (108-176), TMEM97 (108-143) and TMEM97 (144-176) were prepared in ITC buffer (10 mM Tris, pH 7.4, 150 mM NaCl, 0.05% polysorbate 20) at 40 μM concentration and placed in the sample cell. All ITC experiments were performed while stirring at 395 rpm, in ITC buffer at 25° C. using a VP-ITC titration microcalorimeter from MicroCal™, LLC (Northampton, Mass.). The microsyringe was loaded with a Histatin 1 solution (500 μM in ITC buffer). All titrations were conducted using an initial injection of 2.5 μL followed by 35 identical injections of 5 μL with a duration of 16 seconds (per injection) and a spacing of 210 seconds between injections. The buffer control titration (Histatin 1 into buffer) signals were subtracted from the experimental data. The collected data were evaluated using NITPIC (NIH), SEDPHAT (NIH), and GUSSI (NIH).
# To determine more precisely which segment of TMEM97 is necessary for binding of Hst1, multiple synthetic fragments of TMEM97 were generated (Table 6) and binding to Hst1 was tested using SPR. […] Smaller fragments of the C-terminal of TMEM97 were then constructed to represent the (predicted) luminal (108-143) and cytoplasmic (144-176) exposed segments of the C-terminus of TMEM97 based on modeling experiments previously described. […] SPR results for Hst1 were confirmed using ITC as an orthogonal analytical method.
# TMEM97 = TMEM97 (Homo sapiens, UniProt Q5BJF2); assay: ELISA on plates coated with TMEM97; format: binding
# Description: A co-immunoprecipitation (co-IP) assay was performed to determine if the interaction between Hst1 and TMEM97 was reproducible at the cellular level. […] These bands may represent monomeric and dimeric versions of Hst1 and are similar to what has been seen with western blot analyses of Hst1 containing samples. […] Enzyme-linked immunosorbent assay (ELISA) were also conducted to detect bound Hst1 on plates coated with TMEM97.
# [4] = CD, fraction of secondary structure
# T2 sequence (Q5BJF2 144-176 limits assumed): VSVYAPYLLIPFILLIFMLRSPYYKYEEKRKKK
# T1 sequence (Q5BJF2 whole entry): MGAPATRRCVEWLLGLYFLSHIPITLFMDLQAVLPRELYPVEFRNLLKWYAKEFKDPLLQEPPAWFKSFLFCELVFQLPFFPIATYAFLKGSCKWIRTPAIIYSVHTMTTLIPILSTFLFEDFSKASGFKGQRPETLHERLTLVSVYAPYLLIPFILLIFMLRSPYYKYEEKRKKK
# TMEM97, sequence (Q5BJF2 whole entry, species assumed): as the sequence (Q5BJF2 whole entry) above
compound,measurement,setting,value
CC(C)C[C@H](NC(=O)[C@H](Cc1ccc(O)cc1)NC(=O)[C@H](CC(N)=O)NC(=O)[C@H](CO)NC(=O)CNC(=O)[C@H](Cc1ccc(O)cc1)NC(=O)[C@H](CC(=O)O)NC(=O)CNC(=O)[C@H](Cc1ccc(O)cc1)NC(=O)[C@H](Cc1ccccc1)NC(=O)[C@@H]1CCCN1C(=O)[C@H](Cc1ccccc1)NC(=O)[C@H](CCC(=O)O)NC(=O)[C@H](CCCNC(=N)N)NC(=O)[C@H](Cc1c[nH]cn1)NC(=O)[C@H](CO)NC(=O)[C@H](Cc1c[nH]cn1)NC(=O)[C@H](Cc1c[nH]cn1)NC(=O)[C@H](CCCCN)NC(=O)[C@H](CCC(=O)O)NC(=O)[C@H](Cc1c[nH]cn1)NC(=O)[C@H](Cc1ccccc1)NC(=O)[C@H](CCCCN)NC(=O)[C@H](CCCNC(=N)N)NC(=O)[C@H](CCCNC(=N)N)NC(=O)[C@H](Cc1ccc(O)cc1)NC(=O)CNC(=O)[C@H](Cc1c[nH]cn1)NC(=O)[C@H](Cc1c[nH]cn1)NC(=O)[C@H](CCCNC(=N)N)NC(=O)[C@H](CCCCN)NC(=O)[C@H](CCC(=O)O)NC(=O)[C@H](Cc1c[nH]cn1)NC(=O)[C@H](COP(=O)(O)O)NC(=O)[C@@H](N)CC(=O)O)C(=O)N[C@@H](Cc1ccc(O)cc1)C(=O)N[C@@H](CC(=O)O)C(=O)N[C@@H](CC(N)=O)C(=O)O [Hst1] (H-D[pS]HEKRHHGYRRKFHEKHHSHREFPFYGDYGSNYLYDN-OH; N-terminus and C-terminus assumed),HMG-CoA reductase gene expression,NPC1 patient fibroblasts,reducing HMG-CoA reductase gene expression
same,NPC1 gene expression,NPC1 patient fibroblasts,increasing NPC1 gene expression
same,disordered regions,[1]; CD in solution,over 50%
same,Helix,[1]; [4],0.02
same,Strand,[1]; [4],0.29
same,Turns,[1]; [4],0.15
same,Unordered,[1]; [4],0.54
same,% Rmax,[2]; SPR,32%
same,Kd,"[2]; SPR, 25° C., 1 to 1 Langmuir kinetic model",1300 ± 300 nM
same,effect of added DTG or haloperidol on Hst1 binding,[2]; addition of either DTG or haloperidol,did not affect
same,calcium signaling (relative fluorescence intensity),"[3]; 1, 2 and 4 hours",increases calcium signaling
same,elevated calcium levels after benzalkonium chloride,[3]; cells treated with 0.001% BAK,reduced elevated calcium levels
same,Kd,TMEM97 (144-176),460 ± 120 nM
same,ΔH,TMEM97 (144-176),-790 ± 28 kcal/mol
same,ΔS,TMEM97 (144-176),−2.28(±0.37)×10^3 cal/mol K
same,binding to TMEM97 in ELISA,TMEM97,confirmed binding
same,effect of DTG on Hst1 binding in ELISA,"TMEM97; addition of 1,3-Di-o-tolylguanidine (DTG)",did not alter

# — patent US20230190870A1, “Method for Treating Lysosomal Storage Diseases with Histatin Peptides” (THE BOARD OF TRUSTEES OF THE UNIVERSITY OF ILLINOIS, priority 2020, published 2023)
